Reference: PMC6001238, “Iterative Chemical Engineering of Vancomycin Leads to Novel Vancomycin Analogs With a High in Vitro Therapeutic Index” (Frontiers in Microbiology, 2018)
≈ marks a conversion by molar mass, not a printed value. Like-named read-outs stand apart in the source and are kept apart here.

What was measured:
E. faecalis VRE 53 = experiment: MIC, broth microdilution, vancomycin-resistant E. faecalis VRE 53 (VanA); format: cell-based, Enterococcus faecalis
Procedure, shortened: (§1)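 Assayed by broth microdilution under CLSI antimicrobial testing rules. One case paired the analog or control drug with vancomycin at a 10 μM final concentration; water and inoculum-free broth were controls.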

S. aureus VRSA = experiment: MIC, broth microdilution, vancomycin-resistant S. aureus (VRSA); format: cell-based, Staphylococcus aureus
Procedure, shortened: as §1

E. faecalis VSE 1 = experiment: MIC, broth microdilution, vancomycin-sensitive E. faecalis (VSE 1); format: cell-based, Enterococcus faecalis
Procedure, shortened: as §1

[1] = tested on: human cervix carcinoma (HeLa) cells; experiment: Cytostatic activity, HeLa cell proliferation; format: cell-based; details: Homo sapiens, HeLa, 96 h; mean ± SD of three experiments; highest concentration tested 250 µM; 4 days; read-out: Toxicity (IC50) HeLa
Procedure, shortened: (§2)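 Readout: Coulter cell number after drug exposure at 37°C. Durations differ by line (L1210 2 days; CEM 3 days; HeLa 4 days). Stock suspension 300,000–500,000 cells/mL, diluted by mixing with compound. Endpoint: IC50 vs negative control.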

VE 150 (VanB) = experiment: MIC, VanB-type VRE strain VE 150; format: cell-based, Enterococcus; details: Enterococcus; VE 150, VanB; read-out: MIC
Method: (§3) The minimum inhibitory concentration (MIC) was determined using the broth microdilution method according to the antimicrobial susceptibility testing standards of the clinical and laboratory standards institute ([Clinical and Laboratory Standards Institute [CLSI], 2012]). Ultrapure water and non-inoculated broth were used as controls. In one case, a final concentration of 10 μM vancomycin was included with the vancomycin analog or control antibiotic.

VE 157 (VanB) = experiment: MIC, VanB-type VRE strain VE 157; format: cell-based, Enterococcus; details: Enterococcus; VE 157, VanB; read-out: MIC
Method: as §3

VE 152 (VanB) = experiment: MIC, VanB-type VRE strain VE 152; format: cell-based, Enterococcus; details: Enterococcus; VE 152, VanB; read-out: MIC
Method: as §3

MRSA KS89 = experiment: MIC, broth microdilution, MRSA KS89; format: cell-based, Staphylococcus aureus
Procedure, shortened: as §1

[2] = tested on: L1210, CEM and HeLa cell lines; experiment: Cytostatic activity, average or summary over L1210, CEM and HeLa; format: cell-based
Procedure, shortened: as §2

[3] = tested on: 24 clinical MRSA isolates; experiment: MIC against a set of 24 clinical MRSA isolates (range, MIC50, TI); format: cell-based, Staphylococcus aureus
Method: as §3

MRSA KS6 = experiment: MIC, broth microdilution, MRSA KS6; format: cell-based, Staphylococcus aureus
Procedure, shortened: as §1

MRSA = experiment: Minimum bactericidal concentration against MRSA; format: cell-based, Staphylococcus aureus
Method: Plates were incubated overnight at 37°C and colony growth was inspected.

E. faecalis VRE 37 = experiment: MIC, broth microdilution, vancomycin-resistant E. faecalis VRE 37 (VanA); format: cell-based, Enterococcus faecalis
Procedure, shortened: as §1

VE 82 (VanC1) = experiment: MIC, VanC1-type VRE strain VE 82; format: cell-based, Enterococcus gallinarum; details: Enterococcus gallinarum; VE 82, VanC1; read-out: MIC
Method: as §3

33 clinical VRE isolates = experiment: MIC against a set of 33 clinical VRE isolates (range, MIC50, TI); format: cell-based, Enterococcus faecalis
Method: as §3

VE 148 (VanB) = experiment: MIC, VanB-type VRE strain VE 148; format: cell-based, Enterococcus; details: Enterococcus; VE 148, VanB; read-out: MIC
Method: as §3

[4] = tested on: human T-lymphocyte (CEM) cells; experiment: Cytostatic activity, CEM cell proliferation; format: cell-based; details: Homo sapiens, CCRF-CEM, 72 h; mean ± SD of three experiments; highest concentration tested 250 µM; 3 days; read-out: Toxicity (IC50) CEM
Procedure, shortened: as §2

MRSA KS1 = experiment: MIC, broth microdilution, MRSA KS1; format: cell-based, Staphylococcus aureus
Procedure, shortened: as §1

VE 149 (VanB) = experiment: MIC, VanB-type VRE strain VE 149; format: cell-based, Enterococcus; details: Enterococcus; VE 149, VanB; read-out: MIC
Method: as §3

MRSA KS2 = experiment: MIC, broth microdilution, MRSA KS2; format: cell-based, Staphylococcus aureus
Procedure, shortened: as §1

S. aureus VISA/HIP5827 = experiment: MIC, broth microdilution, vancomycin-intermediate S. aureus VISA HIP5827; format: cell-based, Staphylococcus aureus
Procedure, shortened: as §1

E. faecalis VRE 29 = experiment: MIC, broth microdilution, vancomycin-resistant E. faecalis VRE 29 (VanA); format: cell-based, Enterococcus faecalis
Procedure, shortened: as §1

E. faecalis VRE 6 = experiment: MIC, broth microdilution, vancomycin-resistant E. faecalis VRE 6 (VanA); format: cell-based, Enterococcus faecalis
Procedure, shortened: as §1

[5] = tested on: S. aureus VSSA (ATCC 6538); experiment: MIC, broth microdilution, vancomycin-sensitive S. aureus (VSSA/MSSA, ATCC 6538); format: cell-based, Staphylococcus aureus
Procedure, shortened: as §1

[6] = tested on: Murine leukemia (L1210) cells; experiment: Cytostatic activity, L1210 cell proliferation; format: cell-based; details: Mus musculus, L1210, 48 h; mean ± SD of three experiments; highest concentration tested 250 µM; 2 days; read-out: Toxicity (IC50) L1210
Procedure, shortened: as §2

With `CN(C)c1cc(NC(=O)CNC(C)(C)C)c(O)c2c1C[C@H]1C[C@H]3[C@H](N(C)C)C(O)=C(C(N)=O)C(=O)[C@@]3(O)C(O)=C1C2=O` [Tigecycline, reference compound] the MIC (E. faecalis VRE 53; Enterococcus faecalis VRE 53 (vancomycin-resistant), read-out: MIC) was 3.13 µM (≈ 1.83 µg/mL), the “MIC-fold improvement vs. vancomycin” value (E. faecalis VRE 53; VRE 53, ratio of MIC of vancomycin and MIC of analogue) was 128 and the MIC (S. aureus VRSA; Staphylococcus aureus VRSA, read-out: MIC) was 3.13 µM (≈ 1.83 µg/mL). For the same molecule, the “MIC-fold improvement vs. vancomycin” value (S. aureus VRSA; VRSA, ratio of MIC of vancomycin and MIC of analogue) was 32, the MIC (E. faecalis VSE 1; VSE1, Enterococcus faecalis VSE 1 (vancomycin-sensitive), read-out: MIC) was 3.13 µM (≈ 1.83 µg/mL) and the “MIC-fold improvement vs. vancomycin” value (E. faecalis VSE 1; VSE 1, ratio of MIC of vancomycin and MIC of analogue) was 0.5. It also gave an IC50 [1] of 24 ± 17 µM, an MIC (VE 150 (VanB)) of 1.56 µM (≈ 0.914 µg/mL) and an MIC (VE 157 (VanB)) of 1.56 µM (≈ 0.914 µg/mL). For the same molecule, the MIC (VE 152 (VanB)) was 1.56 µM (≈ 0.914 µg/mL), the “MIC-fold improvement vs. vancomycin” value (MRSA KS89; MRSA KS8 (head; KS89 in title), ratio of MIC of vancomycin and MIC of analogue) was 0.5 and the MIC (MRSA KS89; Staphylococcus aureus MRSA KS8 (head; KS89 in title), read-out: MIC) was 1.56 µM (≈ 0.914 µg/mL). For the same molecule, the IC50 ([2]; average IC50 used for TI in Table S5, >250 entered as 250, read-out: IC50) was 14 µM, the IC50 ([2]; average of L1210, CEM and HeLa, read-out: Toxicity (IC50) Average) was 14 µM and the “MIC Range” value ([3]; 24 clinical MRSA isolates) was 0.78 to 6.25 µM. The MIC50 ([3]; Staphylococcus aureus, median MIC, 24 clinical MRSA isolates, read-out: MIC50) was 1.56 µM (≈ 0.914 µg/mL), the “TI (IC50/MIC50)” value ([3]; in vitro therapeutic index, MRSA) was 9 and the “MIC-fold improvement vs. vancomycin” value (MRSA KS6; MRSA KS6, ratio of MIC of vancomycin and MIC of analogue) was 0.5. For the same molecule, the MIC (MRSA KS6; Staphylococcus aureus MRSA KS6, read-out: MIC) was 1.56 µM (≈ 0.914 µg/mL), the “MBC relative to MIC” value (MRSA) was “more than four times higher than the corresponding MIC” and the MIC (E. faecalis VRE 37; Enterococcus faecalis VRE 37 (vancomycin-resistant), read-out: MIC) was 3.13 µM (≈ 1.83 µg/mL). The “MIC-fold improvement vs. vancomycin” value (E. faecalis VRE 37; VRE 37, ratio of MIC of vancomycin and MIC of analogue) was 128, the MIC (VE 82 (VanC1)) was 0.78 µM (≈ 0.457 µg/mL) and the “MIC Range” value (33 clinical VRE isolates; 33 clinical VRE isolates) was at most 0.02 to 0.78 µM. For the same molecule, the MIC50 (33 clinical VRE isolates; Enterococcus, median MIC, 33 clinical VRE isolates, read-out: MIC50) was 0.2 µM (≈ 0.117 µg/mL), the “TI (IC50/MIC50)” value (33 clinical VRE isolates; in vitro therapeutic index, VRE) was 70 and the MIC (VE 148 (VanB)) was 3.13 µM (≈ 1.83 µg/mL). The IC50 [4] was 7.1 ± 2.1 µM, the “MIC-fold improvement vs. vancomycin” value (MRSA KS1; MRSA KS1, ratio of MIC of vancomycin and MIC of analogue) was 0.5 and the MIC (MRSA KS1; Staphylococcus aureus MRSA KS1, read-out: MIC) was 1.56 µM (≈ 0.914 µg/mL). For the same molecule, the MIC (VE 149 (VanB)) was 1.56 µM (≈ 0.914 µg/mL), the “MIC-fold improvement vs. vancomycin” value (MRSA KS2; MRSA KS2, ratio of MIC of vancomycin and MIC of analogue) was 0.5 and the MIC (MRSA KS2; Staphylococcus aureus MRSA KS2, read-out: MIC) was 1.56 µM (≈ 0.914 µg/mL). The MIC (S. aureus VISA/HIP5827; Staphylococcus aureus VISA/HIP5827, read-out: MIC) was 3.13 µM (≈ 1.83 µg/mL), the “MIC-fold improvement vs. vancomycin” value (S. aureus VISA/HIP5827; VISA/HIP5827, ratio of MIC of vancomycin and MIC of analogue) was 2 and the MIC (E. faecalis VRE 29; Enterococcus faecalis VRE 29 (vancomycin-resistant), read-out: MIC) was 3.13 µM (≈ 1.83 µg/mL). For the same molecule, the “MIC-fold improvement vs. vancomycin” value (E. faecalis VRE 29; VRE 29, ratio of MIC of vancomycin and MIC of analogue) was 128, the MIC (E. faecalis VRE 6; Enterococcus faecalis VRE 6 (vancomycin-resistant), read-out: MIC) was 3.13 µM (≈ 1.83 µg/mL) and the “MIC-fold improvement vs. vancomycin” value (E. faecalis VRE 6; VRE 6, ratio of MIC of vancomycin and MIC of analogue) was 64. For the same molecule, the MIC ([5]; ATCC6538, Staphylococcus aureus VSSA, read-out: MIC) was 3.13 µM (≈ 1.83 µg/mL), the “MIC-fold improvement vs. vancomycin” value ([5]; VSSA, ratio of MIC of vancomycin and MIC of analogue) was 0.3 and the IC50 [6] was 9.4 ± 3.2 µM.
